Consider two molecules from patent US8093028B2, “Engineered glycosyltransferases with expanded substrate specificity” (Wisconsin Alumni Research Foundation, priority 2007, dated 2012).

A word on the solubility: it is how much of the substance goes into solution per volume.

One data set deals with T1, OleD P67T/S132F/A242V (Streptomyces antibioticus, UniProt Q53685, A242V/P67T/S132F).
T1 construct: made in house; host or cells: E. coli (site-directed mutant of pET28/OleD)
As to the kind of experiment: Rate of glucoside formation with acceptors (RP-HPLC). The data set is classed as biochemical. The following applies: for Rate of glucoside formation, P67T/S132F/A242V: 200 μM acceptor, 1 mM UDPG. The protocol: Enzyme assays for the determination of glycosyl transfer rate to FIG. 1: 4, Table 1: 27-32 were carried out in a total volume of 500 μl 50 mM Tris-HCl (pH8.0) containing 5 mM MgCl2, 200 μM acceptor, 1 mM UDPG, and 50 μg pure enzyme. Aliquots (100 μl) were removed between 0 and 30 min, at which time product formation was still linear with respect to time, and quenched with 90 μl of an 8:1 mixture of ice-cold MeOH/HCl, and centrifuged at 14,000 rpm for 10 min. Supernatants were analyzed by analytical reverse-phase HPLC with a 250 mm×4.6 mm Gemini […] C18 column (Phenomenex, Torrance, Calif.) using a gradient of 10-90% CH3CN in 0.1% trifluoroacetic acid (TFA)/H2O in 20 min at 1 ml/min, with detection at 254 nm. HPLC peak areas were integrated, and the product concentration calculated as a percent of the total peak area. Product identity was confirmed by co-elution with a commercial standard when available and, in all cases, by LC-MS (FIG. 8). […]
(§1) Enzyme reactions were carried out in a total volume of 500 μl 50 mM Tris-HCl (pH8.0) containing 5 mM MgCl2, 200 μM acceptor, 1 mM UDPG, and 50 μg pure enzyme. Aliquots (100 μl) were removed between 0 and 30 min, and quenched with 90 μl of an 8:1 mixture of ice-cold MeOH/HCl for activity towards FIG. 1: 4, Table 1: 27-32, or with 90 μl of ice-cold MeOH for activity towards FIG. 1: 1, and the samples centrifuged at 14,000 rpm for 10 min.
(§2) For determination of activity to FIG. 1: 4, Table 1: 27-32, supernatants were analyzed by analytical reverse-phase HPLC with a Gemini 5μ C18 column (Phenomenex) using a gradient of 10-90% CH3CN in 0.1% trifluoroacetic acid (TFA)/H2O in 20 min, with detection at 254 nm. HPLC peak areas were integrated, and the product concentration calculated as a percent of the total peak area. All products were characterized by LC-MS. Mass spectra were obtained using electrospray ionization on an Agilent 1100 HPLC-MSD SL quadrapole mass spectrometer connected to a UV/Vis diode array detector. For LC-MS analysis, quenched reaction mixtures (see below) were analyzed by analytical reverse-phase HPLC with a 250 mm×4.6 mm Gemini 5μ C18 column (Phenomenex, Torrance, Calif.) using a gradient of 10-90% CH3CN in 0.1% formic acid/H2O in 20 min at 1 ml/min, with detection at 254 nm.
(§3) For determination of activity toward FIG. 1: 1, centrifuged reaction mixtures were analyzed by analytical reverse-phase HPLC with a Gemini 5μ C18 column (Phenomenex) using a gradient of 0-90% CH3CN in 50 mM NH3COOH over 30 min at 1 ml/min. Compounds FIG. 1: 1 and 3 were detected by evaporative light scattering detection (ELSD) using a drift tube temperature of 105° C. and a nitrogen flow of 2.5 ml/min. All products were characterized by APCI LC-MS on an Agilent 1100 Series LC/MSD quadrapole mass spectrometer connected to a UV detector. Quenched reaction mixtures were analyzed by reverse-phase HPLC with a 10 mm×4.6 mm Zorbax Extend 5μ C18 Analytical Guard Column (Agilent Technologies) using an isocratic gradient of 80% MeOH in 2 min at 1 ml/min, with detection at 254 nm.

A short description of data set [1]: Solubility limit of acceptors. The data set is classed as physicochemical.
Another data set concerns the target T2, OleD S132F (Streptomyces antibioticus, UniProt Q53685, P55A/R82V/R83E/S132F/T84P).
T2 construct: made in house; host or cells: E. coli (site-directed mutant of pET28/OleD)
As to the kind of experiment: Rate of glucoside formation with acceptors (RP-HPLC). The data set is classed as biochemical. The settings on record: 200 μM acceptor, 1 mM UDPG. On the procedure:
(§4) Enzyme assays for the determination of glycosyl transfer rate to FIG. 1: 4, Table 1: 27-32 were carried out in a total volume of 500 μl 50 mM Tris-HCl (pH8.0) containing 5 mM MgCl2, 200 μM acceptor, 1 mM UDPG, and 50 μg pure enzyme. Aliquots (100 μl) were removed between 0 and 30 min, at which time product formation was still linear with respect to time, and quenched with 90 μl of an 8:1 mixture of ice-cold MeOH/HCl, and centrifuged at 14,000 rpm for 10 min. Supernatants were analyzed by analytical reverse-phase HPLC with a 250 mm×4.6 mm Gemini […] C18 column (Phenomenex, Torrance, Calif.) using a gradient of 10-90% CH3CN in 0.1% trifluoroacetic acid (TFA)/H2O in 20 min at 1 ml/min, with detection at 254 nm. HPLC peak areas were integrated, and the product concentration calculated as a percent of the total peak area. Product identity was confirmed by co-elution with a commercial standard when available and, in all cases, by LC-MS (FIG. 8).
(§5) Reaction conditions for assay of macrolide glycosylation were identical to that for FIG. 1: 1, except that typically, less enzyme was used (1-10 μg) and reactions were quenched with an equal volume of ice-cold MeOH. Centrifuged reaction mixtures were analyzed by analytical reverse-phase HPLC with a Gemini 5μ C18 column (Phenomenex) using a gradient of 0-90% CH3CN in 50 mM NH3COOH over 30 min at 1 ml/min. Products and acceptor macrolide were detected by evaporative light scattering detection (ELSD) using a drift tube temperature of 105° C. and a nitrogen flow of 2.5 ml/min. All products were characterized by APCI LC-MS on an Agilent 1100 Series LC/MSD quadrapole mass spectrometer connected to a UV detector. Quenched reaction mixtures were analyzed by reverse-phase HPLC with a 10 mm×4.6 mm Zorbax Extend 5μ C18 Analytical Guard Column (Agilent Technologies) using an isocratic gradient of 80% MeOH in 2 min at 1 ml/min, with detection at 254 nm.
as §1, §2, §3

The target in the next data set is T3, WT OleD (Streptomyces antibioticus, UniProt Q53685, P55A/R82V/R83E/T84P).
T3 construct: made in house; host or cells: E. coli BL21(DE3)pLysS, plasmid pET28/OleD
The description is as above. The data set is classed as biochemical. The settings on record: 200 μM acceptor, 1 mM UDPG. On the procedure:
as §4, §5, §1, §2, §3

The next data set has as its target T4, OleD P67T (Streptomyces antibioticus, UniProt Q53685, P55A/P67T/R82V/R83E/T84P).
T4 construct: made in house; host or cells: E. coli (site-directed mutant of pET28/OleD)
The description is as above. The data set is classed as biochemical. The following applies: 200 μM acceptor, 1 mM UDPG. On the procedure:
as §4, §5, §1, §2, §3

Another data set addresses T5, OleD A242V (Streptomyces antibioticus, UniProt Q53685, A242V/P55A/R82V/R83E/T84P).
T5 construct: made in house; host or cells: E. coli BL21(DE3)pLysS (error-prone PCR clone in pET28a)
Described as above. The data set is classed as biochemical. The settings on record: 200 μM acceptor, 1 mM UDPG. On the procedure: as §4, §5, §1, §2, §3

Each structure is given as a SMILES string. Converted amounts (≈) assume the structure as drawn. Where two headings read alike, the source gives them in different places.

Take `Cc1cc(=O)oc2cc(O)ccc12` [4-Me-umb (4), 7-hydroxy-4-methylcoumarin]: at OleD P67T/S132F/A242V, the “Rate of glucoside formation, P67T/S132F/A242V” value is recorded as 84 mmols/product formed/min/μg enzyme × 10^3. In addition, the “specific activity, fold higher than WT OleD” value on OleD P67T/S132F/A242V (4 and 2 as acceptor/donor) is roughly 30 fold. Besides, the “Fold-improvement compared to WT OleD” value at OleD P67T/S132F/A242V (rate of P67T/S132F/A242V versus WT, UDPG donor) came out at 33 fold. For the same molecule, the solubility is 10 mM (≈ 1760 µg/mL) in data set [1] (aqueous with cosolvent or surfactant or cyclodextrin, in water/DMSO, read-out: solubility limit) and less than 4 mM in data set [1] (enzyme assay buffer (50 mM Tris-HCl with 5 mM MgCl2), pH 8, limited solubility in assay, read-out: solubility). Further, at OleD S132F, the “Rate of glucoside formation, S132F” value is 6.3 mmols/product formed/min/μg enzyme × 10^3. Also, the “Rate of glucoside formation, WT” value on WT OleD was 2.5 mmols/product formed/min/μg enzyme × 10^3. Besides, the “Rate of glucoside formation, P67T” value on OleD P67T was 15.7 mmols/product formed/min/μg enzyme × 10^3. The “Rate of glucoside formation, A242V” value at OleD A242V is on record as 5.4 mmols/product formed/min/μg enzyme × 10^3.
Take `CC(C)=CCc1cc(C(=O)Nc2c(O)c3ccc(O)c(C)c3oc2=O)ccc1O` [novobiocic acid (29), novobiocic acid]: the “Rate of glucoside formation, P67T/S132F/A242V” value on OleD P67T/S132F/A242V was 1.14 mmols/product formed/min/μg enzyme × 10^3. Moreover, the solubility in data set [1] (in kinetic assay, read-out: solubility limit) amounted to 5 mM (≈ 1980 µg/mL). Further, the “Rate of glucoside formation, S132F” value on OleD S132F is 0.49 mmols/product formed/min/μg enzyme × 10^3. Besides, the “Rate of glucoside formation, WT” value at WT OleD is listed as 0.24 mmols/product formed/min/μg enzyme × 10^3. At OleD P67T, the “Rate of glucoside formation, P67T” value is 0.65 mmols/product formed/min/μg enzyme × 10^3. Also, the “Rate of glucoside formation, A242V” value at OleD A242V was 0.33 mmols/product formed/min/μg enzyme × 10^3.
